Test results: ChEMBL document CHEMBL5244211, “Current anti-diabetic agents and their molecular targets: A review” (Eur J Med Chem, 2018)

Legend:
[1] = target: T1, Free fatty acid receptor 1 (Homo sapiens, UniProt O14842); test: Agonist activity at FFAR1 (unknown origin) incubated for 16 hrs by Promoter-luciferase assay
[2] = Clearance in Wistar rat at 1 mg/kg,iv; format: ADME, organism-based; settings: in vivo
[3] = Oral bioavailability in Wistar rat at 3 mg/kg; format: ADME, organism-based; settings: in vivo
[4] = target: Free fatty acid receptor 1 (Rattus norvegicus) (UniProt Q8K3T4); test: In vivo agonist activity at FFAR1 in streptozotocin (STZ)-induced Wistar rat assessed as reduction in blood glucose AUC at 1 mg/kg,iv and measured upto 120 mins by OGTT analysis; format: functional, organism-based; set-up: scale not given: the % may be the effect or the level left
Chain of Free fatty acid receptor 1 (Rattus norvegicus) (Q8K3T4 whole entry): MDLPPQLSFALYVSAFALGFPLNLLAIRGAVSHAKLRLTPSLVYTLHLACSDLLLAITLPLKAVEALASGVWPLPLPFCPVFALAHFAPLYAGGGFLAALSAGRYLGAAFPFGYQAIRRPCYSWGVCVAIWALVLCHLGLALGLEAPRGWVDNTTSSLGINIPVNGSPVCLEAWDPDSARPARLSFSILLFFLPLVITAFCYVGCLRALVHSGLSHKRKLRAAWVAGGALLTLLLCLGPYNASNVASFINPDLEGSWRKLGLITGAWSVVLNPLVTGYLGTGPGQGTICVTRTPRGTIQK

[5] = target: Free fatty acid receptor 1 (Rattus norvegicus) (UniProt Q8K3T4); test: In vivo agonist activity at FFAR1 in iv dosed streptozotocin (STZ)-induced Wistar rat model assessed as reduction in blood glucose AUC and measured upto 120 mins by OGTT analysis; format: functional, organism-based
[6] = target: T1, Free fatty acid receptor 1; test: Agonist activity at human GPR40 expressed in HEK293 cells incubated for 1 hrs by calcium flux assay; format: cell-based

T1 sequence (O14842 whole entry): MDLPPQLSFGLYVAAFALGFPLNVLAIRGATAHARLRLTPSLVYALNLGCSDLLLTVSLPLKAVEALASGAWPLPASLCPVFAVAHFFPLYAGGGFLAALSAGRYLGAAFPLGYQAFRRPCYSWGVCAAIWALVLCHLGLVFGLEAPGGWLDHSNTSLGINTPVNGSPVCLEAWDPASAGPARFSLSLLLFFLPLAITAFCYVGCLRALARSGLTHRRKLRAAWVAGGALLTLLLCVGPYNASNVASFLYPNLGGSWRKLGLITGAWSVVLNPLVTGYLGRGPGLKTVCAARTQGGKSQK

| SMILES | EC50 [1] [nM] | clearance [2] [mL/min/kg] | bioavailability [3] [%] | Activity [4] [%] | ED50 [5] [mg/kg] | EC50 [6] [nM] |
| --- | --- | --- | --- | --- | --- | --- |
| CC#CC(CC(=O)O)c1ccc(OCc2cccc(CN3CCc4oc(C5CC5)nc4C3)c2)cc1 (stereo unspecified) | 50 | 0.27 | 45 | 46 | 0.09 |  |
| COc1ccc(F)c(-c2ncc(COc3ccc([C@@H](CC(=O)O)C4CC4)cc3)nc2OCCC(F)(F)F)c1 |  |  |  |  |  | 6 |
